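1) Cells in 96-well plates. 2) Compound, 48 h, 5 concentrations. 3) Linear interpolation between surrounding doses. 4) Unreached endpoint = highest concentration. GI50 is the concentration that inhibits growth by half. TGI marks complete inhibition of growth.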 *1 amine or outer side, *2 acyl side, *3 side chain or, on linkers, in order; H or OH if unused. Where a SMILES comes first, the peptide text is derived from it. [ ]: non-standard residue; d: D form. The star is where a group is joined. ξ: configuration not given here. X11 = CCC(=O)CC(O)CC(C)CC(N[*:1])C(=O)[*:2]; ξLeu(3ξ-OH) = CC(C)C(O)C(N)C(=O)O; ξPro(4ξ-Me) = CC1CNC(C(=O)O)C1; X10 = CCC(C)/C=C/C(=O)*; Aib = CC(C)(N)C(=O)O; X12 = CC(CN(C)C)N*; βAla = NCCC(=O)O
Assays:
Assay in all cases: NCI tumour cell line growth inhibition, 48 h
BT-549 breast = tested on: BT-549 breast
HOP-92 NSCLC = tested on: HOP-92 NSCLC
NCI-H226 lung = tested on: NCI-H226 lung
NCI-H23 lung = tested on: NCI-H23 lung
UACC-257 melanoma = tested on: UACC-257 melanoma
A498 renal = tested on: A498 renal
ACHN renal = tested on: ACHN renal
CCRF-CEM leukemia = tested on: CCRF-CEM leukemia
DU-145 prostate = tested on: DU-145 prostate
HL-60(TB) leukemia = tested on: HL-60(TB) leukemia
HOP-62 NSCLC = tested on: HOP-62 NSCLC
MDA-MB-435 = tested on: MDA-MB-435
OVCAR-3 ovarian = tested on: OVCAR-3 ovarian
OVCAR-5 ovarian = tested on: OVCAR-5 ovarian
RXF 393 renal = tested on: RXF 393 renal
SK-OV-3 ovarian = tested on: SK-OV-3 ovarian
TK-10 renal = tested on: TK-10 renal
786-0 renal = tested on: 786-0 renal
A549 NSCLC = tested on: A549 NSCLC
CAKI-1 renal = tested on: CAKI-1 renal
COLO 205 colon = tested on: COLO 205 colon
EKVX NSCLC = tested on: EKVX NSCLC
HCC-2998 colon = tested on: HCC-2998 colon
HCT-116 colon = tested on: HCT-116 colon
HCT-15 colon = tested on: HCT-15 colon
HS 578T breast = tested on: HS 578T breast
HT29 colon = tested on: HT29 colon
IGROV1 ovarian = tested on: IGROV1 ovarian
K-562 leukemia = tested on: K-562 leukemia
KM12 colon = tested on: KM12 colon
LOX IMVI melanoma = tested on: LOX IMVI melanoma
M14 melanoma = tested on: M14 melanoma
MALME-3M melanoma = tested on: MALME-3M melanoma
MCF7 breast = tested on: MCF7 breast
MDA-MB-231 breast = tested on: MDA-MB-231 breast
MOLT-4 leukemia = tested on: MOLT-4 leukemia
NCI-H460 lung = tested on: NCI-H460 lung
NCI-H522 lung = tested on: NCI-H522 lung
NCI/ADR-RES ovarian = tested on: NCI/ADR-RES ovarian
OVCAR-4 ovarian = tested on: OVCAR-4 ovarian
OVCAR-8 ovarian = tested on: OVCAR-8 ovarian
PC-3 prostate = tested on: PC-3 prostate
RPMI-8226 leukemia = tested on: RPMI-8226 leukemia
SF-268 CNS = tested on: SF-268 CNS
SF-295 CNS = tested on: SF-295 CNS
SF-539 CNS = tested on: SF-539 CNS
SK-MEL-2 melanoma = tested on: SK-MEL-2 melanoma
SK-MEL-28 melanoma = tested on: SK-MEL-28 melanoma
SK-MEL-5 melanoma = tested on: SK-MEL-5 melanoma
SN12C renal = tested on: SN12C renal
SNB-19 CNS = tested on: SNB-19 CNS
SNB-75 CNS = tested on: SNB-75 CNS
SR leukemia = tested on: SR leukemia
SW-620 colon = tested on: SW-620 colon
T-47D breast = tested on: T-47D breast
U251 CNS = tested on: U251 CNS
UACC-62 melanoma = tested on: UACC-62 melanoma
UO-31 renal = tested on: UO-31 renal

Question: How did the TGI (BT-549 breast) turn out when `CCC(=O)CC(O)CC(C)CC(NC(=O)C1CC(C)CN1C(=O)/C=C/C(C)CC)C(=O)NC(C(=O)NC(C)(C)C(=O)NC(CC(C)C)C(=O)NC(CC(C)C)C(=O)NC(C)(C)C(=O)NC(C)(C)C(=O)NCCC(=O)NC(C)CN(C)C)C(O)C(C)C` (stereo not drawn) (X10-[ξPro(4ξ-Me)][X11][ξLeu(3ξ-OH)][Aib]LL[Aib][Aib][βAla]-X12; configuration not given here) was run?
Answer: 11.3 µM

Question: And the TGI (HOP-92 NSCLC)?
Answer: 1.09 µM

Question: What about the TGI (NCI-H226 lung) of the same compound?
Answer: 3.62 µM

Question: What about the TGI (NCI-H23 lung) of the same compound?
Answer: 7.7 µM

Question: And the TGI (UACC-257 melanoma)?
Answer: 17 µM

Question: `Cl.Fc1c[c-]c(-c2ccccn2)c(F)c1.[Pt].c1ccc([PH+](c2ccccc2)c2ccccc2[PH+](c2ccccc2)c2ccccc2)cc1` was tested. Which GI50 (A498 renal) did it give?
Answer: 0.0493 µM

Question: What about the TGI (A498 renal) of the same compound?
Answer: 0.215 µM

Question: What about the GI50 (ACHN renal) of the same compound?
Answer: 0.157 µM

Question: And the TGI (ACHN renal)?
Answer: 0.46 µM

Question: What about the GI50 (CCRF-CEM leukemia) of the same compound?
Answer: 0.078 µM

Question: What about the TGI (CCRF-CEM leukemia) of the same compound?
Answer: 1.09 µM

Question: What about the GI50 (DU-145 prostate) of the same compound?
Answer: 0.0677 µM

Question: And the TGI (DU-145 prostate)?
Answer: 0.334 µM

Question: And the GI50 (HL-60(TB) leukemia)?
Answer: 0.0395 µM

Question: What about the TGI (HL-60(TB) leukemia) of the same compound?
Answer: 0.321 µM

Question: What about the GI50 (HOP-62 NSCLC) of the same compound?
Answer: 0.0655 µM

Question: What about the TGI (HOP-62 NSCLC) of the same compound?
Answer: 0.32 µM

Question: What about the GI50 (MDA-MB-435) of the same compound?
Answer: 0.0825 µM

Question: What about the TGI (MDA-MB-435) of the same compound?
Answer: 0.268 µM

Question: And the GI50 (OVCAR-3 ovarian)?
Answer: 0.0629 µM

Question: What about the TGI (OVCAR-3 ovarian) of the same compound?
Answer: 0.211 µM

Question: And the GI50 (OVCAR-5 ovarian)?
Answer: 0.14 µM

Question: What about the TGI (OVCAR-5 ovarian) of the same compound?
Answer: 0.415 µM

Question: And the GI50 (RXF 393 renal)?
Answer: 0.137 µM

Question: What about the TGI (RXF 393 renal) of the same compound?
Answer: 0.296 µM

Question: What about the GI50 (SK-OV-3 ovarian) of the same compound?
Answer: 0.0883 µM

Question: What about the TGI (SK-OV-3 ovarian) of the same compound?
Answer: 0.64 µM

Question: And the GI50 (TK-10 renal)?
Answer: 0.141 µM

Question: What about the TGI (TK-10 renal) of the same compound?
Answer: 0.689 µM

Question: What about the GI50 (UACC-257 melanoma) of the same compound?
Answer: 0.107 µM

Question: What about the TGI (UACC-257 melanoma) of the same compound?
Answer: 0.698 µM

Question: What does the source list for `COc1c(O)cc2c(c1CC=C(C)C)OC(=O)c1c(cc(O)c(CC=C(C)C)c1O)O2`?
Answer: GI50 (786-0 renal): 4.59 µM; TGI (786-0 renal): 8.47 µM; GI50 (A549 NSCLC): 4.26 µM; TGI (A549 NSCLC): 8.28 µM; GI50 (ACHN renal): 3.93 µM; TGI (ACHN renal): 7.49 µM; GI50 (CAKI-1 renal): 4.32 µM; TGI (CAKI-1 renal): 8.61 µM; GI50 (CCRF-CEM leukemia): 7.63 µM; TGI (CCRF-CEM leukemia): 25 µM; GI50 (COLO 205 colon): 4.51 µM; TGI (COLO 205 colon): 8.45 µM; GI50 (DU-145 prostate): 4.18 µM; TGI (DU-145 prostate): 7.62 µM; GI50 (EKVX NSCLC): 4.67 µM; TGI (EKVX NSCLC): 8.74 µM; GI50 (HCC-2998 colon): 2.56 µM; TGI (HCC-2998 colon): 5.72 µM; GI50 (HCT-116 colon): 3.91 µM; TGI (HCT-116 colon): 7.82 µM; GI50 (HCT-15 colon): 3.95 µM; TGI (HCT-15 colon): 8.94 µM; GI50 (HL-60(TB) leukemia): 5.76 µM; TGI (HL-60(TB) leukemia): 15.4 µM; GI50 (HOP-62 NSCLC): 4.19 µM; TGI (HOP-62 NSCLC): 7.72 µM; GI50 (HOP-92 NSCLC): 4.08 µM; TGI (HOP-92 NSCLC): 7.78 µM; GI50 (HS 578T breast): 2.96 µM; TGI (HS 578T breast): 7.4 µM; GI50 (HT29 colon): 4.39 µM; TGI (HT29 colon): 8.7 µM; GI50 (IGROV1 ovarian): 4.14 µM; TGI (IGROV1 ovarian): 7.91 µM; GI50 (K-562 leukemia): 5.91 µM; TGI (K-562 leukemia): 17 µM; GI50 (KM12 colon): 4.12 µM; TGI (KM12 colon): 7.71 µM; GI50 (LOX IMVI melanoma): 3.53 µM; TGI (LOX IMVI melanoma): 7.68 µM; GI50 (M14 melanoma): 4.22 µM; TGI (M14 melanoma): 8.5 µM; GI50 (MALME-3M melanoma): 4.62 µM; TGI (MALME-3M melanoma): 8.7 µM; GI50 (MCF7 breast): 6.48 µM; TGI (MCF7 breast): 25 µM; GI50 (MDA-MB-231 breast): 4.23 µM; TGI (MDA-MB-231 breast): 8.46 µM; GI50 (MDA-MB-435): 4.11 µM; TGI (MDA-MB-435): 7.94 µM; GI50 (MOLT-4 leukemia): 4.1 µM; TGI (MOLT-4 leukemia): 12.7 µM; GI50 (NCI-H226 lung): 4.51 µM; TGI (NCI-H226 lung): 8.86 µM; GI50 (NCI-H23 lung): 3.45 µM; TGI (NCI-H23 lung): 8.29 µM; GI50 (NCI-H460 lung): 3.69 µM; TGI (NCI-H460 lung): 7.29 µM; GI50 (NCI-H522 lung): 4.16 µM; TGI (NCI-H522 lung): 8.06 µM; GI50 (NCI/ADR-RES ovarian): 4.03 µM; TGI (NCI/ADR-RES ovarian): 8.69 µM; GI50 (OVCAR-3 ovarian): 3.83 µM; TGI (OVCAR-3 ovarian): 7.2 µM; GI50 (OVCAR-4 ovarian): 4.04 µM; TGI (OVCAR-4 ovarian): 7.61 µM; GI50 (OVCAR-5 ovarian): 3.89 µM; TGI (OVCAR-5 ovarian): 7.85 µM; GI50 (OVCAR-8 ovarian): 4.47 µM; TGI (OVCAR-8 ovarian): 8.71 µM; GI50 (PC-3 prostate): 4.87 µM; TGI (PC-3 prostate): 9.7 µM; GI50 (RPMI-8226 leukemia): 5.95 µM; TGI (RPMI-8226 leukemia): 15.7 µM; GI50 (RXF 393 renal): 4.02 µM; TGI (RXF 393 renal): 7.75 µM; GI50 (SF-268 CNS): 4.26 µM; TGI (SF-268 CNS): 7.82 µM; GI50 (SF-295 CNS): 4.32 µM; TGI (SF-295 CNS): 8.13 µM; GI50 (SF-539 CNS): 4.46 µM; TGI (SF-539 CNS): 8.52 µM; GI50 (SK-MEL-2 melanoma): 4.38 µM; TGI (SK-MEL-2 melanoma): 8.58 µM; GI50 (SK-MEL-28 melanoma): 4.76 µM; TGI (SK-MEL-28 melanoma): 9.52 µM; GI50 (SK-MEL-5 melanoma): 4.24 µM; TGI (SK-MEL-5 melanoma): 7.91 µM; GI50 (SK-OV-3 ovarian): 4.44 µM; TGI (SK-OV-3 ovarian): 8.01 µM; GI50 (SN12C renal): 3.67 µM; TGI (SN12C renal): 7.37 µM; GI50 (SNB-19 CNS): 4.5 µM; TGI (SNB-19 CNS): 8.51 µM; GI50 (SNB-75 CNS): 3.09 µM; TGI (SNB-75 CNS): 6.45 µM; GI50 (SR leukemia): 3.95 µM; TGI (SR leukemia): 10.5 µM; GI50 (SW-620 colon): 3.42 µM; TGI (SW-620 colon): 7.05 µM; GI50 (T-47D breast): 4.48 µM; TGI (T-47D breast): 8.72 µM; GI50 (TK-10 renal): 5.49 µM; TGI (TK-10 renal): 11.7 µM; GI50 (U251 CNS): 4.23 µM; TGI (U251 CNS): 7.75 µM; GI50 (UACC-257 melanoma): 4.06 µM; TGI (UACC-257 melanoma): 7.67 µM; GI50 (UACC-62 melanoma): 3.74 µM; TGI (UACC-62 melanoma): 7.48 µM; GI50 (UO-31 renal): 4.22 µM; TGI (UO-31 renal): 7.79 µM

Reference: PubChem BioAssay (NCI)
